One test concerns the target PDE4B (Homo sapiens, UniProt Q07343). Briefly: Scintillation Proximity Assay (SPA) of PDE4B enzyme activity ([H3]-cAMP cleavage). Type of test: biochemical. As to conditions: test substance 1 μM; one-hour incubation of [H3]-cAMP with PDE4B enzyme at 30° C. The essentials: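 Percent inhibition at 1 μM compound, measured against an uninhibited reaction. PDE4B hydrolysed tritiated cAMP for one hour at 30 °C, then scintillator beads were added to capture [H3]-5′-AMP. Light events were counted after 45 min bead settling.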
On the technique in general: Scintillation proximity formats need no separation of bound from free tracer.
Sequence of PDE4B (Q07343 whole entry, species assumed): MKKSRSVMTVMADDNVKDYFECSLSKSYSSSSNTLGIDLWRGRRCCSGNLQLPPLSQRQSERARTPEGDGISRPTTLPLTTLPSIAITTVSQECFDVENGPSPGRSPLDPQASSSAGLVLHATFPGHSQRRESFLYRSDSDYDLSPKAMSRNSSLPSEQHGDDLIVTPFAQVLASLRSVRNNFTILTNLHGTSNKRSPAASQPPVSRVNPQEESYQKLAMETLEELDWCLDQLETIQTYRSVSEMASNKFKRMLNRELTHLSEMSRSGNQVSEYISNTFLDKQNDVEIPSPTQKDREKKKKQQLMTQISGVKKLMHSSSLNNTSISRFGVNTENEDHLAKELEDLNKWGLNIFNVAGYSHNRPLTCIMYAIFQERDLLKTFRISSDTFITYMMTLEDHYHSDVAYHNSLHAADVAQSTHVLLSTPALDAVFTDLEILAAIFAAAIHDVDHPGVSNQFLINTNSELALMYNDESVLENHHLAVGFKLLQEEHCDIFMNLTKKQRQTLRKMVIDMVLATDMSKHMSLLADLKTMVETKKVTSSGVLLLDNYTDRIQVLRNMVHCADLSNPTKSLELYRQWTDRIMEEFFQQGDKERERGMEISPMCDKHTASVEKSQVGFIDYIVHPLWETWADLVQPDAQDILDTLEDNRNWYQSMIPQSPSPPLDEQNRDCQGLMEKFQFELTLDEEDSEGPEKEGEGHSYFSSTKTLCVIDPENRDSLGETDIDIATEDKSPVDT
Broadly, the inhibition is the change of the read-out against control, counted positive when it falls. `CC(C)[C@H](CO)Nc1nc(N2CCC(c3cccc(C#N)c3)CC2)nc2c1[S+]([O-])CC2` (stereo partly shown) [Example 154] gave an inhibition at 1 µM of 92%. Same read-out and setting: next, `[O-][S+]1CCc2nc(N3CCC(c4cccc(F)c4)CC3)nc(NC3CCOCC3)c21` (stereo not shown) [Example 86]: 94%. Take `[O-][S+]1CCc2nc(N3CCC(c4ccc(F)cc4F)CC3)nc(NC3(CO)CC3)c21` (stereo not shown) [Example 89, (1-{2-[4-(2,4-Difluorophenyl)-Piperidin-1-Yl]-5-Oxo-6,7-Dihydro-5H-5λ^4-Thieno[3,2-d]Pyrimidin-4-Ylamino}-Cyclopropyl)-Methanol]: testing at 1 µM gave an inhibition of 93%. The molecule `N#CC1(c2ccccc2)CCN(c2nc3c(c(Nc4cccc(F)c4)n2)[S+]([O-])CC3)CC1` (stereo not shown) [Example 85] returned an inhibition at 1 µM of 96%. Take `[O-][S+]1CCc2nc(N3CCC(c4cc5ccccc5o4)CC3)nc(Nc3cccc(F)c3)c21` (stereo not shown) [Example 141]: testing at 1 µM gave an inhibition of 97%. The same measure, in the same setting: next, `[O-][S+]1CCc2nc(N3CCC(c4nc(-c5ccncc5)no4)CC3)nc(NC3(CO)CC3)c21` (stereo not shown) [Example 116]: 94%; `N#Cc1cccc(C2CCN(c3nc4c(c(NC5CCOCC5)n3)[S+]([O-])CC4)CC2)c1` (stereo not shown) [Example 123]: 94%; `CCOC(=O)c1ccc2c(C3CCN(c4nc5c(c(NC6(CO)CC6)n4)[S+]([O-])CC5)CC3)c[nH]c2c1` (stereo not shown) [Example 29, ethyl 3-{1-[4-(1-hydroxymethylcyclopropylamino)-5-oxo-6,7-dihydro-5H-5λ^4-thieno[3,2-d]pyrimidin-2-yl]-piperidin-4-yl}-1H-indole-6-carboxylate]: 97%. Molecule `CN1C[C@@H](Nc2nc(N3CCC(c4noc5ccccc45)CC3)nc3c2[S+]([O-])CC3)CCC1=O` (stereo partly shown) [Example 45] displayed an inhibition at 1 µM of 97%. The same measure, in the same setting: next, `[O-][S+]1CCc2nc(N3CCC(c4c[nH]cn4)CC3)nc(NC3CCOCC3)c21` (stereo not shown) [Example 57]: 86%; `CC(C)[C@H](CO)Nc1nc(N2CCC(O)(c3cc(F)cc(F)c3)CC2)nc2c1[S+]([O-])CC2` (stereo partly shown) [Example 18]: 92%. The molecule `[O-][S+]1CCc2nc(N3CCC(c4c[nH]cn4)CC3)nc(NC3(CO)CC3)c21` (stereo not shown) [Example 27] gave an inhibition at 1 µM of 87%. For `[O-][S+]1CCc2nc(N3CCC(c4ccncc4)CC3)nc(NC3(CO)CC3)c21` (stereo not shown) [Example 34], the inhibition at 1 µM amounted to 92%. For the molecule `[O-][S+]1CCc2nc(N3CCC(c4c[nH]c5ccccc45)CC3)nc(NC3CCOCC3)c21` (stereo not shown) [Example 56], the inhibition at 1 µM stood at 96%. Consider `CCc1[nH]c2ccc(F)cc2c1C1CCN(c2nc3c(c(N[C@@H](CO)C(C)C)n2)[S+]([O-])CC3)CC1` (stereo partly drawn) [Example 22, (R)-2-{2-[4-(2-Ethyl-5-Fluoro-1H-Indol-3-Yl)-Piperidin-1-Yl]-5-Oxo-6,7-Dihydro-5H-5λ^4-Thieno[3,2-d]Pyrimidin-4-Ylamino}-3-Methylbutan-1-Ol], for which the inhibition at 1 µM was 86%. For the molecule `CS(=O)(=O)N1CC2(CCN(c3nc4c(c(NC5(CO)CC5)n3)[S+]([O-])CC4)CC2)c2ccccc21` (stereo not shown) [Example 30], at 1 µM the inhibition was 89%. As to `CCc1[nH]c2ccc(F)cc2c1C1CCN(c2nc3c(c(N[C@H]4CCC(=O)N(C)C4)n2)[S+]([O-])CC3)CC1` (stereo partly shown) [Example 52], the inhibition at 1 µM worked out at 96%. On to `O=S1(=O)CCc2nc(N3CCC(c4ccc(Cl)cc4)CC3)nc(NC3CCOCC3)c21` [Example 334, {2-[4-(4-chlorophenyl)-piperidin-1-yl]-5.5-dioxo-6,7-dihydro-5H-5λ^6-thieno[3,2-d]pyrimidin-4-yl}-(tetrahydropyran-4-yl)-amine], for which at 1 µM the inhibition was 65%. `[O-][S+]1CCc2nc(N3CCC(c4cccc(Cl)c4)CC3)nc(NC3(CO)CC3)c21` (stereo not shown) [Example 39] returned an inhibition at 1 µM of 96%. For the molecule `CC(C)[C@H](CO)Nc1nc(N2CCC3(CC2)CN(S(C)(=O)=O)c2ccccc23)nc2c1[S+]([O-])CC2` (stereo partly shown) [Example 15], the inhibition at 1 µM was 67%. As for `CN1C(=O)Nc2ccccc2C12CCN(c1nc3c(c(Nc4cccc(F)c4)n1)[S+]([O-])CC3)CC2` (stereo not shown) [Example 73, 1-(4-(3-fluorophenylamino)-5-oxo-6,7-dihydro-5H-5λ^4-thieno[3,2-d]pyrimidin-2-yl)-3′-methyl-1′H-spiro[piperidin-4,4′-quinazolin]-2′(3′H)-one], testing at 1 µM gave an inhibition of 94%.

Still in this test, the particulars now being: test substance 1 μM; one-hour incubation with [H3]-cAMP at 30° C.
In the case of `CCN(CC)CCOc1ccc(OC2CCN(c3nc4c(c(NC5CCOCC5)n3)[S+]([O-])CC4)CC2)cc1` (stereo not shown) [Example 178, (2-{4-[4-(2-diethylamino-ethoxy)-phenoxy]-piperidin-1-yl}-5-oxo-6,7-dihydro-5H-5λ^4-thieno[3,2-d]pyrimidin-4-yl)-(tetrahydropyran-4-yl)-amine], the inhibition at 1 µM amounted to 92%.

Turning to `[O-][S+]1CCc2nc(N3CCC(Oc4ccc5c(c4)CCNCC5)CC3)nc(NC3CCOCC3)c21` (stereo not shown) [Example 183, (5-Oxo-2-[4-(2,3,4,5-Tetrahydro-1H-Benzo[d]Azepin-7-Yloxy)-Piperidin-1-Yl]-6,7-Dihydro-5H-5λ^4-Thieno[3,2-d]Pyrimidin-4-Yl)-(Tetrahydropyran-4-Yl)-Amine], the inhibition at 1 µM worked out at 91%. `CN(C)CC(=O)NCC1(c2ccccc2)CCN(c2nc3c(c(N[C@H]4CCC(=O)N(C)C4)n2)[S+]([O-])CC3)CC1` (stereo partly shown) [Example 206, 2-dimethylamino-N-{1-[4-(1-methyl-6-oxopiperidin-3-ylamino)-5-oxo-6,7-dihydro-5H-5λ^4-thieno[3,2-d]pyrimidin-2-yl]-4-phenylpiperidin-4-ylmethyl}-acetamide] came in with an inhibition at 1 µM of 95%. With `COC(=O)C1(c2ccccc2)CCN(c2nc3c(c(N[C@H]4CCC(=O)N(C)C4)n2)[S+]([O-])CC3)CC1` (stereo partly shown) [Example 205, methyl 1-[4-(1-methyl-6-oxopiperidin-3-ylamino)-5-oxo-6,7-dihydro-5H-5λ^4-thieno[3,2-d]pyrimidin-2-yl]-4-phenylpiperidine-4-carboxylate], the inhibition at 1 µM is 96%.

For the molecule `COCC(=O)NCC1(c2ccccc2)CCN(c2nc3c(c(NC4(CO)CC4)n2)[S+]([O-])CC3)CC1` (stereo not shown) [Example 216], the inhibition at 1 µM amounted to 80%. Still for that read-out and setting: as for `CN1C[C@@H](Nc2nc(N3CCC(C(=O)N4CCOCC4)(c4ccccc4)CC3)nc3c2[S+]([O-])CC3)CCC1=O` (stereo partly shown) [Example 252, 1-Methyl-5-{2-[4-(Morpholine-4-Carbonyl)-4-Phenyl Piperidin-1-Yl]-5-Oxo-6,7-Dihydro-5H-5λ^4-Thieno[3,2-d]Pyrimidin-4-Ylamino}-Piperidin-2-One], the figure is 92%; as for `Cn1cc(C2CCN(c3nc4c(c(NC5CCOCC5)n3)[S+]([O-])CC4)CC2)c2cc(C(C)(C)C)ccc21` (stereo not shown) [Example 192, {2-[4-(5-tert-butyl-1-methyl-1H-indol-3-yl)-piperidin-1-yl]-5-oxo-6,7-dihydro-5H-5λ^4-thieno[3,2-d]pyrimidin-4-yl}-(tetrahydropyran-4-yl)-amine], 95%; as for `[O-][S+]1CCc2nc(N3CCC(c4cc(-c5cccs5)[nH]n4)CC3)nc(NC3(CO)CC3)c21` (stereo not shown) [Example 285], 90%. Molecule `Cc1nn(C)cc1CNC(=O)c1ccc(C2CCN(c3nc4c(c(NC5CCOCC5)n3)[S+]([O-])CC4)CC2)cc1` (stereo not shown) [Example 262] registered an inhibition at 1 µM of 94%. Molecule `COC1(c2ccc(Cl)cc2)CCN(c2nc3c(c(Nc4cccc(F)c4)n2)[S+]([O-])CC3)CC1` (stereo not shown) [Example 316] displayed an inhibition at 1 µM of 92%. With `[O-][S+]1CCc2nc(N3CCC(Oc4ccc(Cl)c(Cl)c4)CC3)nc(NC3CCOCC3)c21` (stereo not shown) [Example 181], the inhibition at 1 µM stood at 92%. Regarding `[O-][S+]1CCc2nc(N3CCC(c4nnc(-c5ccccc5)o4)CC3)nc(NC3CCOCC3)c21` (stereo not shown) [Example 317], the inhibition at 1 µM stood at 95%. Take `Cc1nn(C)cc1CNC(=O)c1ccc(OC2CCN(c3nc4c(c(NC5CCOCC5)n3)[S+]([O-])CC4)CC2)cc1` (stereo not shown) [Example 263]: at 1 µM the inhibition was 94%. For the molecule `NC1CC1Nc1nc(N2CCC(c3ccc(Cl)cc3)CC2)nc2c1[S+]([O-])CC2` (single isomer, unassigned) [Example 232, N-{2-[4-(4-Chlorophenyl)-Piperidin-1-Yl]-5-Oxo-6,7-Dihydro-5H-5λ^4-Thieno[3,2-d]Pyrimidin-4-Yl}-Cyclopropan-1,2-Diamine], the inhibition at 1 µM was found to be 84%. The same measure, in the same setting: next, `[O-][S+]1CCc2nc(N3CCC(c4nc5cccnc5[nH]4)CC3)nc(NC3CCOCC3)c21` (stereo not shown) [Example 207]: 95%; `Cc1cn(C)nc1CN(C)C(=O)c1ccc(C2CCN(c3nc4c(c(NC5CCOCC5)n3)[S+]([O-])CC4)CC2)cc1` (stereo not shown) [Example 226]: 95%; `COC1(c2ccc(Cl)cc2)CCN(c2nc3c(c(NC4CCOCC4)n2)[S+]([O-])CC3)CC1` (stereo not shown) [Example 313]: 89%.

For `CS(=O)(=O)NCC1(c2ccccc2)CCN(c2nc3c(c(Nc4cccc(F)c4)n2)[S+]([O-])CC3)CC1` (stereo not shown) [Example 327], the inhibition at 1 µM worked out at 83%. The molecule `[O-][S+]1CCc2nc(N3CCC(OCc4ccccc4)(c4ccc(Cl)cc4)CC3)nc(NC3CCOCC3)c21` (stereo not shown) [Example 319] came in with an inhibition at 1 µM of 91%. Still for that read-out and setting: next, `CC(=O)NCC1(c2ccccc2)CCN(c2nc3c(c(N[C@H]4CCC(=O)N(C)C4)n2)[S+]([O-])CC3)CC1` (stereo partly shown) [Example 204, N-{1-[4-(1-methyl-6-oxopiperidin-3-ylamino)-5-oxo-6,7-dihydro-5H-5λ^4-thieno[3,2-d]pyrimidin-2-yl]-4-phenylpiperidin-4-ylmethyl}-acetamide]: 96%; `CN1C[C@@H](Nc2nc(N3CCC(Oc4ccc(F)cc4)CC3)nc3c2[S+]([O-])CC3)CCC1=O` (stereo partly shown) [Example 169]: 92%.

Turning to `N#CC1(c2ccc(F)cc2)CCN(c2nc3c(c(NC4CCOCC4)n2)[S+]([O-])CC3)CC1` (stereo not shown) [Example 293], at 1 µM the inhibition was 86%.

The values above are taken from patent publication US8754073B2, “Substituted piperazino-dihydrothienopyrimidines” (Boehringer Ingelheim International GmbH, priority 2007, dated 2014).
